# Experiments:
# [1] = system: 7W cells (APPwt) and 7PA2 cells (APPV717F); assay: method of Wang et al. in 7W cells (APPwt) and 7PA2 cells (APPV717F); format: cell-based
# Description: (§1) Compounds of the present invention were assayed to determine their effect on the total ration of amyloid-β (1-42) peptide in vitro using an assay protocol substantially similar to that described by Wang et al., J. Biol. Chem. 1996, 50:31894-31902, The Profile of Soluble Amyloid β Protein in Cultured Cell Media, the entirety of which is hereby incorporated herein by reference. This assay quantifies amyloid-β protein using immunoprecipitation and mass spectrometry (IP-MS).
# Compound 6 was also assayed according to the method described in Wang et al., in 7W cells (APPwt) and 7PA2 cells (APPV717F). The APP717 mutations increase the relative amount of amyloid-β (1-42) peptide. In this assay, it was shown that compound 6 reduces amyloid-β (1-42) peptide while increasing amyloid-β (1-39) peptide.
# [2] = stability experiments in solution; format: physicochemical
# Description: However, it was stable in slightly acidic solution. Therefore, 2609-165-7 was re-processed on the Luna C8 column using 70% MeOH/30% water containing 0.05% AcOH as eluent to give 3.4 mg of compound 6 (2609-172-11).
# amyloid-β (1-42) peptide = assay: amyloid-β protein profile by immunoprecipitation and mass spectrometry (IP-MS), protocol of Wang et al.; format: cell-based; details: in vitro
# Description: as §1
structure (smiles),measurement,setting,value
"CC(=O)O[C@@H]([C@H]1C[C@@H](C)C2=C(O1)[C@H](O)[C@@]1(C)[C@@H]3CC[C@H]4C(C)(C)[C@@H](O[C@@H]5OC[C@@H](O)[C@H](O)[C@H]5O)CC[C@@]45C[C@@]35CC[C@]21C)C(C)(C)O [Compound 6, 24-O-Acetylhydroshengmanol 3-β-D-xylopyranoside (delta-16,17)-enol ether]",effect on amyloid-β (1-39) peptide,[1],increasing
same,effect on amyloid-β (1-42) peptide,[1],reduces
same,stability in solution,[2]; MeOH solution which is slightly basic,deacetylation occurred
same,stability in solution,[2]; slightly acidic solution,stable
same,effect on amyloid-β (1-37) peptide,amyloid-β (1-42) peptide,increasing
same,effect on amyloid-β (1-39) peptide,amyloid-β (1-42) peptide,increasing
same,effect on amyloid-β (1-42) peptide,amyloid-β (1-42) peptide,reduced
